# Test results taken from ChEMBL document CHEMBL4385619, “Identification of topoisomerases as molecular targets of cytosporolide C and its analog” (Bioorg Med Chem, 2019).
# The source made the active and inactive calls. The rule behind the calls is not given here.
# Assays:
# [1] = target: DNA topoisomerase 2-alpha (Homo sapiens) (UniProt P11388); experiment: Inhibition of human DNA topoisomerase 2 mediated decatenation at 10 uM using kDNA as substrate after 30 mins by ethidium bromide staining-based agarose gel electrophoresis method
# DNA topoisomerase 2-alpha (Homo sapiens), sequence (P11388 whole entry): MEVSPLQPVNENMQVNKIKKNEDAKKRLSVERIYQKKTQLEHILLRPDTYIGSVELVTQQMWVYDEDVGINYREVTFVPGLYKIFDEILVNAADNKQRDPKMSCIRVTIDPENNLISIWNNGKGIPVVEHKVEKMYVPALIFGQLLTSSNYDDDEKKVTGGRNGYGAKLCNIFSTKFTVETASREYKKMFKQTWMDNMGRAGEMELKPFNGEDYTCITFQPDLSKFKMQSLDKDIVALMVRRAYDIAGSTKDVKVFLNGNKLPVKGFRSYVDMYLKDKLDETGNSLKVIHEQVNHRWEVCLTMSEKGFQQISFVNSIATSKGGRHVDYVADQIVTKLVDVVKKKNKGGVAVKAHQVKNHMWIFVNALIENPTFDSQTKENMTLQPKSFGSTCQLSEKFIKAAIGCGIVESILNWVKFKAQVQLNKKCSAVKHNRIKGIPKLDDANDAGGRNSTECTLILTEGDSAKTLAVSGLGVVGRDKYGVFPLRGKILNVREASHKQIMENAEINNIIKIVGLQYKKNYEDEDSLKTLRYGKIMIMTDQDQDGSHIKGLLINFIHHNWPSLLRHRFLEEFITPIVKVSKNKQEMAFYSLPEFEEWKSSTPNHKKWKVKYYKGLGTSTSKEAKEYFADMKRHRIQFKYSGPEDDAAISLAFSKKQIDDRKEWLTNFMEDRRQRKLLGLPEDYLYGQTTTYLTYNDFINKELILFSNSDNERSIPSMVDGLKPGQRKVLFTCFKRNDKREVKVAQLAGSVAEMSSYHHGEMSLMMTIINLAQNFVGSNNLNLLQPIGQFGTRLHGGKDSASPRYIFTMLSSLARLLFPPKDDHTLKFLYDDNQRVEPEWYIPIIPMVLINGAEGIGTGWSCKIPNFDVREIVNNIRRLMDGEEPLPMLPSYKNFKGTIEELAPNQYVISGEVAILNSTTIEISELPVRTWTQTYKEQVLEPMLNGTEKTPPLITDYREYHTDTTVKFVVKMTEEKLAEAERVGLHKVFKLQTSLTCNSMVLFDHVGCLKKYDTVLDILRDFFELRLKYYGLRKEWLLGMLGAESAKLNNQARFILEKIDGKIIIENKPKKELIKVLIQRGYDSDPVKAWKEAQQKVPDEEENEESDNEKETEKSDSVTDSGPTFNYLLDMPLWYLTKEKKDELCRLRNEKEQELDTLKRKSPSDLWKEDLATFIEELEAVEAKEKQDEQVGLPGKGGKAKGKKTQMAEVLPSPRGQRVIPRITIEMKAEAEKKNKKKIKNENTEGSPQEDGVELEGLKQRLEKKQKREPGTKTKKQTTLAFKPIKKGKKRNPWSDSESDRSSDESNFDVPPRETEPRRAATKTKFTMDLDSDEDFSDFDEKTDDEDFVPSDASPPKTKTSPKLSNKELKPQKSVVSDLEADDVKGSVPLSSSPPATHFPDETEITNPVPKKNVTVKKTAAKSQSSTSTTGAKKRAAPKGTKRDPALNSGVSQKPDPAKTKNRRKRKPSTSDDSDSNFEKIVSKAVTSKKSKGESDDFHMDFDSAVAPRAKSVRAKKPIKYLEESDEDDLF
# MCF7 = experiment: Antiproliferative activity against human MCF7 cells assessed as reduction in cell viability measured after 72 hrs by MTT assay; type: functional, cell-based; conditions: MCF7, 72 h
# [2] = target: T1, DNA topoisomerase 1 (Escherichia coli (strain K12)) (UniProt P06612); experiment: Inhibition of Escherichia coli topoisomerase 1 mediated DNA relaxation at 10 uM using plasmid pMT-puro DNA as substrate after 30 mins by ethidium bromide staining-based agarose gel electrophoresis method
# T1 sequence (whole entry): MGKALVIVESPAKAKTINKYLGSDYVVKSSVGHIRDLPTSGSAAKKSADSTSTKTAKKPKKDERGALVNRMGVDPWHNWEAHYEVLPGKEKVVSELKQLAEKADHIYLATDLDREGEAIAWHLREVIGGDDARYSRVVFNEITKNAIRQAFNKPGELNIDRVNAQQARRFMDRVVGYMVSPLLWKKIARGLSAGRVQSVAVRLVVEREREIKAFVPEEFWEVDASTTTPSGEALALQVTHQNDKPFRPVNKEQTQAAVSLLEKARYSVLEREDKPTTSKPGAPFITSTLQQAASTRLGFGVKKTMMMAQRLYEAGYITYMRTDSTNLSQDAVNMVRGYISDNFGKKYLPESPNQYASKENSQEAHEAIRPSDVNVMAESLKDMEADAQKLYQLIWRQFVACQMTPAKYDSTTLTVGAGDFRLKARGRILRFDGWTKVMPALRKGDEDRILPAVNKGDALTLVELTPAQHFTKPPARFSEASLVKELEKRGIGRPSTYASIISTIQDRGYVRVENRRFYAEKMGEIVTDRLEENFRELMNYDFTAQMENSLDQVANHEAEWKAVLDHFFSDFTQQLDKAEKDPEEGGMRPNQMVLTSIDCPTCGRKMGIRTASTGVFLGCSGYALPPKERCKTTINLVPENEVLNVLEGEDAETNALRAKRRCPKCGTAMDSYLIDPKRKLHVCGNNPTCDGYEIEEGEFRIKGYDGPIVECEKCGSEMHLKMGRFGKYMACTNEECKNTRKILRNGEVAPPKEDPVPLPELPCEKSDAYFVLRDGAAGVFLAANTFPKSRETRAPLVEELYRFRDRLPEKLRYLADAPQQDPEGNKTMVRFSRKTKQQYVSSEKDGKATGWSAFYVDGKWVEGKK
# A549 = experiment: Antiproliferative activity against human A549 cells assessed as reduction in cell viability measured after 72 hrs by MTT assay; type: functional, cell-based; conditions: A549, 72 h
# HCT-116 = experiment: Antiproliferative activity against human HCT116 cells assessed as reduction in cell viability measured after 72 hrs by MTT assay; type: functional, cell-based; conditions: HCT-116, 72 h
# [3] = target: T1, DNA topoisomerase 1 (Escherichia coli (strain K12)); experiment: Inhibition of Escherichia coli topoisomerase 1 mediated DNA relaxation using plasmid pMT-puro DNA as substrate after 30 mins by ethidium bromide staining-based agarose gel electrophoresis method
# [4] = target: T1, DNA topoisomerase 1 (Escherichia coli (strain K12)); experiment: Inhibition of Escherichia coli topoisomerase 1 mediated DNA relaxation at 1 uM using plasmid pMT-puro DNA as substrate after 30 mins by ethidium bromide staining-based agarose gel electrophoresis method
SMILES,inhibition [1],IC50 (MCF7) [µM],inhibition [2],IC50 (A549) [µM],IC50 (HCT-116) [µM],inhibition [3],inhibition [4]
CO[C@@H]1/C=C(\C)C[C@H](O)[C@]2(O)[C@H](CC2(C)C)/C(CO)=C\1,inactive,> 10,inactive,> 10,> 10,,
CCCCCCC[C@@H]1Cc2cc(O)c(C(=O)O)c3c2[C@H](O1)[C@H]1[C@@H](OC)/C=C(/COC(C)=O)[C@H]2CC(C)(C)[C@]2(O)[C@@H](OC(C)=O)C[C@]1(C)O3,inactive,> 10,inactive,> 10,> 10,,
CO[C@@H]1/C=C(\C)C[C@H](OC(C)=O)[C@]2(O)[C@H](CC2(C)C)/C(COC(C)=O)=C\1,inactive,> 10,inactive,> 10,> 10,,
CCCCCCC[C@@H]1Cc2cc(O)c(C(=O)O)c3c2[C@H](O1)[C@H]1[C@@H](OC)/C=C(/COC(C)=O)[C@H]2CC(C)(C)[C@]2(O)[C@@H](O)C[C@]1(C)O3,inactive,8.88,Active,6.31,5.98,,
C[C@H]([C@H](C)N1CC(=O)NC(=O)C1)N1CC(=O)NC(=O)C1,Active,,,,,,
CCCCCCC[C@@H]1Cc2cc(O)c(C(=O)O)c3c2[C@H](O1)[C@H]1[C@@H](OC)/C=C(/CO)[C@H]2CC(C)(C)[C@]2(O)[C@@H](O)C[C@]1(C)O3,inactive,> 10,inactive,> 10,> 10,,
C=C1CC[C@@H]2[C@H]3O[C@H](CCCCCCC)Cc4cc(O)c(C(=O)O)c(c43)O[C@@]2(C)CC[C@@H]2[C@@H]1CC2(C)C,Active,7.28,Active,5.01,3.91,Dose-dependent effect,
CCCCCCC[C@@H]1Cc2cc(O)c(C(=O)O)c(O)c2[C@H](O)O1,Active,> 10,inactive,> 10,> 10,,
CC[C@@]1(O)C(=O)OCc2c1cc1n(c2=O)Cc2cc3ccccc3nc2-1,,,,,,,Active
